Assay results published in ChEMBL document CHEMBL2016563, “Synthesis of new bergenin derivatives as potent inhibitors of inflammatory mediators NO and TNF-α” (Bioorg Med Chem Lett, 2012).

What was measured:
[1] = Antiinflammatory activity in human neutrophils assessed as inhibition of opsonized zymosan A-mediated superoxide anions production by WST-1 based respiratory burst assay; assay type: functional, cell-based, Neutrophil
[2] = test system: NIH3T3; assay: Cytotoxicity against mouse 3T3 cells at 100 uM after 72 hrs by MTT assay; assay type: cell-based; conditions: nih3t3, 72 h
[3] = test system: J774.2; assay: Induction of LPS-induced NO production in mouse J774.2 cells at 60 uM after 48 hrs by spectrophotometry; assay type: functional
[4] = test system: THP-1; assay: Induction of LPS-B-induced TNF-alpha production in human THP1 cells at 60 uM after 4 hrs; assay type: functional
[5] = test system: J774.2; assay: Antiinflammatory activity in mouse J774.2 cells assessed as inhibition of LPS-induced NO production at 60 uM after 48 hrs by spectrophotometry; assay type: functional; conditions: J774.2, 48 h
[6] = test system: THP-1; assay: Antiinflammatory activity in human THP1 cells assessed as inhibition of LPS-B-induced TNF-alpha production at 60 uM after 4 hrs; assay type: functional; conditions: THP-1, 4 h
[7] = Homo sapiens, Neutrophil, read-out: IC50

For COc1c(OC(C)C)cc2c(c1OC(C)C)[C@@H]1O[C@H](CO)[C@@H](O)[C@H](O)[C@H]1OC2=O, the IC50 [1, 7] was 303 µM, the Activity [2] was “Non-toxic” and the Activity [3] was 5.5%. The Activity [4] was 8.44%.

For C=CCCOc1cc2c(c(OCCC=C)c1OC)[C@@H]1O[C@H](CO)[C@@H](O)[C@H](O)[C@H]1OC2=O, the IC50 [1, 7] was 288 µM, the Activity [2] was “Non-toxic” and the inhibition at 60 µM [5] was 3.6%. It also gave an Activity [4] of 13.27%.

With CCCCCOc1cc2c(c(OCCCCC)c1OC)[C@@H]1O[C@H](CO)[C@@H](O)[C@H](O)[C@H]1OC2=O the IC50 [1, 7] was 296 µM, the Activity [2] was “Non-toxic” and the inhibition at 60 µM [5] was 3.4%. For the same compound, the inhibition at 60 µM [6] was 20.9%.

For CCOc1cc2c(c(OCC)c1OC)[C@@H]1O[C@H](CO)[C@@H](O)[C@H](O)[C@H]1OC2=O, the IC50 [1, 7] was 322 µM, the Activity [2] was “Non-toxic” and the inhibition at 60 µM [5] was 54.5%. For the same compound, the inhibition at 60 µM [6] was 98.6%.

In the case of COc1cc2c(c(OC)c1OC)[C@@H]1O[C@H](CO)[C@@H](O)[C@H](O)[C@H]1OC2=O, the IC50 ([1]; neutrophil) is reported as “Not Active”, the Activity [2] is reported as “Non-toxic” and the inhibition at 60 µM [5] is reported as 47.6%. The inhibition at 60 µM [6] was 0.44%.

For C#CCOc1cc2c(c(OCC#C)c1OC)[C@@H]1O[C@H](CO)[C@@H](O)[C@H](O)[C@H]1OC2=O, the IC50 [1, 7] was 382 µM, the Activity [2] was “Non-toxic” and the inhibition at 60 µM [5] was 19.4%. It also gave an Activity [4] of 27.56%.

With CCCCCCCOc1cc2c(c(OCCCCCCC)c1OC)[C@@H]1O[C@H](CO)[C@@H](O)[C@H](O)[C@H]1OC2=O the IC50 [1, 7] was 213 µM, the Activity [2] was “Non-toxic” and the inhibition at 60 µM [5] was 18%. For the same compound, the inhibition at 60 µM [6] was 28.7%.

For C=CCCCCOc1cc2c(c(OCCCCC=C)c1OC)[C@@H]1O[C@H](CO)[C@@H](O)[C@H](O)[C@H]1OC2=O, the IC50 [1, 7] was 270 µM, the Activity [2] was “Non-toxic” and the inhibition at 60 µM [5] was 9.4%. The inhibition at 60 µM [6] was 17.7%.

For C=CCOc1cc2c(c(OCC=C)c1OC)[C@@H]1O[C@H](CO)[C@@H](O)[C@H](O)[C@H]1OC2=O, the IC50 [1, 7] was 333 µM, the Activity [2] was “Non-toxic” and the inhibition at 60 µM [5] was 5.5%. It also gave an Activity [4] of 18.41%.

For COc1c(OCC#N)cc2c(c1OCC#N)[C@@H]1O[C@H](CO)[C@@H](O)[C@H](O)[C@H]1OC2=O, the IC50 [1, 7] was 416 µM, the Activity [2] was “Non-toxic” and the inhibition at 60 µM [5] was 13.3%. The Activity [4] was 26.21%.

In the case of CCCCOc1cc2c(c(OCCCC)c1OC)[C@@H]1O[C@H](CO)[C@@H](O)[C@H](O)[C@H]1OC2=O, the IC50 [1, 7] is reported as 403 µM, the Activity [2] is reported as “Non-toxic” and the inhibition at 60 µM [5] is reported as 31.2%. For the same compound, the inhibition at 60 µM [6] was 26.3%.

In the case of COc1c(OCC(=O)OC(C)(C)C)cc2c(c1OCC(=O)OC(C)(C)C)[C@@H]1O[C@H](CO)[C@@H](O)[C@H](O)[C@H]1OC2=O, the IC50 [1, 7] is reported as 482 µM, the Activity [2] is reported as “Non-toxic” and the inhibition at 60 µM [5] is reported as 16.3%. The inhibition at 60 µM [6] was 9.6%.

With CCCCCCCCOc1cc2c(c(OCCCCCCCC)c1OC)[C@@H]1O[C@H](CO)[C@@H](O)[C@H](O)[C@H]1OC2=O the IC50 [1, 7] was 222 µM, the Activity [2] was “Non-toxic” and the inhibition at 60 µM [5] was 18%. It also gave an Activity [4] of 3.4%.

In the case of CCCOc1cc2c(c(OCCC)c1OC)[C@@H]1O[C@H](CO)[C@@H](O)[C@H](O)[C@H]1OC2=O, the IC50 ([1]; neutrophil) is reported as “Not Active”, the Activity [2] is reported as “Non-toxic” and the inhibition at 60 µM [5] is reported as 8.9%. It also gave an Activity [4] of 5.57%.

With CCOC(=O)COc1cc2c(c(OCC(=O)OCC)c1OC)[C@@H]1O[C@H](CO)[C@@H](O)[C@H](O)[C@H]1OC2=O the IC50 [1, 7] was 253 µM, the Activity [2] was “Non-toxic” and the inhibition at 60 µM [5] was 86.8%. For the same compound, the inhibition at 60 µM [6] was 96.2%.

For COc1c(O)cc2c(c1O)[C@@H]1O[C@H](CO)[C@@H](O)[C@H](O)[C@H]1OC2=O [BERGENIN], the IC50 [1, 7] was 303 µM, the Activity [2] was “Non-toxic” and the inhibition at 60 µM [5] was 4.3%. The Activity [4] was 7.91%.

Compound COc1ccc2c(c1)c(CC(=O)O)c(C)n2C(=O)c1ccc(Cl)cc1 [INDOMETHACIN] has an IC50 [1, 7] of 271 µM.

CNC(=N)NCCC[C@H](N)C(=O)O [TILARGININE ACETATE] gave an inhibition at 60 µM [5] of 40%.
